# Assay results taken from article PMC10525927, “First Generation of Antioxidant Precursors for Bioisosteric Se-NSAIDs: Design, Synthesis, and In Vitro and In Vivo Anticancer Evaluation” (Antioxidants, 2023).
# Read-outs that look alike come from different tables or passages of the source.
# Legend:
# H1299 lung cancer cells = assay: MTT cell viability assay, H1299; assay type: cell-based; conditions: mean ± SD
# Procedure: (§1) The cell lines were purchased from the American Type Culture Collection (ATCC). The cancer cell lines DU-145, PC-3, T-47D, MDA-MB-231, H1299, and A549, and the non-tumorigenic cells (184B5 and BEAS-2B), were maintained in RPMI 1640 medium (Gibco, Alcobendas, Madrid, Spain) supplemented with 10% fetal bovine serum (FBS; Gibco) and 1% antibiotics (10.00 units/mL penicillin and 10.00 mg/mL streptomycin; Gibco). Colon cancer cells HT-29 and HCT-116 were cultured in McCoy’s 5A medium (Gibco) supplemented with 10% fetal bovine serum (FBS; Gibco) and 1% antibiotics (10.00 units/mL penicillin and 10.00 mg/mL streptomycin; Gibco). Cells were maintained in tissue culture flasks at 37 °C and 5% CO2. The culture medium was replaced every three days.
# (§2) The antiproliferative activity and selectivity in vitro of the Se-NSAID derivatives were determined by the (3-(4,5-dimethylthiazol-2-yl)-2,5-diphenyltetrazolium bromide) (MTT) assay. Compounds were dissolved in DMSO at a concentration of 0.01 M and serial dilutions were prepared. The Se-NSAID derivatives were tested at seven concentrations ranging between 1 and 100 µM in the colon (HT-29 and HCT-116), prostate (DU-145 and PC-3), breast (MDA-MB-231 and T-47D), and lung (H1299 and A549) cancer cell lines. The non-tumorigenic breast (184B5) and lung (BEAS-2B) cell lines were also tested to assess the selectivity of the compounds following the same procedure. A total of 1 × 10^4 cells were seeded per well in 96-well plates and incubated at 5% CO2 and 37 °C for 24 h. Then, cells were treated with either DMSO or increasing concentrations of the corresponding Se-NSAID derivatives for 48 h. A volume of 20 µL of MTT (5 mg/mL) was added to each well 2.5 h before the termination point. At the end of the experiment, the medium was removed, and the resultant formazan crystals formed by mitochondrial reduction of MTT were dissolved in 50 µL of DMSO. Absorbance was measured at 550 nm. IC50, GI50, TGI, and LC50 values were calculated using OriginPro version 8.5.1. software by nonlinear curve fitting. Selectivity indexes (SI) were calculated as the ratio of the IC50 values determined for the nonmalignant and the tumoral cells in the breast (IC50 (184B5)/IC50 (MDA-MB-231) and IC50 (184B5)/IC50 (T-47D)) and lung (IC50 (BEAS-2B)/IC50 (H1299) and IC50 (BEAS-2B)/IC50 (A549)) cell lines. Data were obtained from at least three independent experiments performed in triplicates.
# [1] = system: panel of eight cancer cell lines; assay: MTT cell viability assay, statements on the whole panel; assay type: cell-based; conditions: 48 h
# Procedure: as §1, §2
# [2] = system: 184B5 non-tumorigenic breast (mammary gland) cells; assay: MTT cell viability assay, 184B5; assay type: cell-based; conditions: mean ± SD; for IC50: nonmalignant breast cells
# Procedure: as §1, §2
# [3] = system: MDA-MB-231 breast cancer cells; assay: MTT cell viability assay, MDA-MB-231; assay type: cell-based; conditions: mean ± SD
# Procedure: as §1, §2
# HCT-116 cells [4] = assay: Caspase 3/7 apoptosis assay; assay type: cell-based; conditions: HCT-116, 24 h
# Procedure: (§3) The capacity of the Se-NSAID derivatives to induce apoptosis was analyzed using both a Caspase 3/7 assay kit and Annexin V & Dead Cell assay kit (EMD Millipore, Darmstadt, Germany). HCT-116 cells were seeded in 6-well plates at a density of 5 × 10^5 cells per well. Cells were treated either with DMSO (control) or with different concentrations of compound 5 and incubated for 24 h. At the end of the treatment, cells were collected and treated with the respective dyes according to the manufacturer’s protocol. For the Caspase 3/7 assay, cells were stained with 5 µL of Muse™ Caspase 3/7 working solution and incubated at 37 °C for 30 min. After incubation, […] of Muse™ Caspase 7-AAD working solution was added and the samples were incubated for another 5 min in the dark at room temperature prior to analysis. For Annexin V assay, cells were stained with 100 µL pf Muse™ Annexin V & Dead Cell Reagent and incubated for 20 min at room temperature in the dark. Samples for both assays were analyzed on a Muse™ Cell Analyzer (Merck Millipore, Darmstadt, Germany) using Muse™ version 1.4. software.
# HCT-116 cells [5] = assay: Annexin V & Dead Cell apoptosis assay; assay type: cell-based; conditions: HCT-116, 24 h
# Procedure: as §3
# [6] = system: PC-3 prostate cancer cells; assay: MTT cell viability assay, PC-3; assay type: cell-based; conditions: 48 h, mean ± SD
# Procedure: as §1, §2
# HT-29 colon cancer cells = assay: MTT cell viability assay, HT-29; assay type: cell-based; conditions: mean ± SD
# Procedure: as §1, §2
# [7] = system: HCT-116 colon cancer cells; assay: MTT cell viability assay, HCT-116; assay type: cell-based; conditions: mean ± SD
# Procedure: as §1, §2
# In vivo toxicity study = assay: In vivo toxicity study; design: species or system mice; conditions: 7.5 mg/Kg IP thrice weekly, 27 days
# Procedure: Female mice of 4–5 weeks of age (The Jackson Laboratory, Bar Harbor, ME, USA) were kept on the daily cycle of 12 h light/dark and received food and water ad libitum throughout the studies. All animal procedures were performed following the National Institutes of Health (NIH) Guide for the Care and Use of Laboratory Animals and protocols were approved by the Animal Care and Use Committee of the Penn State College of Medicine.
# Mice were treated either with intraperitoneal doses of 7.5 mg/Kg of compound 5 or with DMSO (vehicle) thrice weekly and kept under observation for 27 days. Body weight, behavior, and food and water intake were monitored every alternate day. At the end of the study, animals were sacrificed by euthanizing the animals by CO2 asphyxiation. The blood serum was withdrawn and subjected to the biochemical analysis of creatinine (mg/dL), AST(SGOT) (U/L), ALT(SGPT) (U/L), Alk. Phos (U/L), and BUN (mg/dL).
# [8] = in vitro TGI concentration, 48 h, Table S1
structure (smiles),measurement,setting,value
"CC(C)Cc1ccc(C(C)C(=O)[Se][Se]C(=O)C(C)c2ccc(CC(C)C)cc2)cc1 (stereo not drawn) [Compound 5, 2-(4-Isobutylphenyl)propanoic diselenoperoxyanhydride]",LD50 H1299,"H1299 lung cancer cells; 48 h, Table S1",16.5 ± 5.1 µM
same,IC50,"H1299 lung cancer cells; Homo sapiens, NCI-H1299, 48 h",9.3 ± 0.6 µM
same,GI50,"H1299 lung cancer cells; Homo sapiens, NCI-H1299, 48 h, Table S1",8.1 ± 1 µM
same,TGI H1299,H1299 lung cancer cells; [8],10.2 ± 1.0 µM
same,GI50,"[1]; eight cancer cell lines, read-out: GI50 across all the cancer cell lines tested",< 10 µM
same,IC50,"[1]; eight colon, prostate, breast and lung cancer cell lines, read-out: IC50 in all the cancer cell lines tested",< 10 µM
same,GI50,[1]; read-out: GI50 in at least six out of the eight cell lines,< 5 µM
same,IC50,[2]; 48 h,18.2 ± 0.8 µM
same,GI50,"[2]; Homo sapiens, 184B5, 48 h, Table S1",6.6 ± 1.5 µM
same,IC50,"[2]; Homo sapiens, 184B5, 48 h",14 to 19 µM
same,TGI 184B5,[2]; [8],11.1 ± 1.4 µM
same,IC50,"[3]; Homo sapiens, MDA-MB-231, 48 h",8.3 ± 2.5 µM
same,GI50,"[3]; Homo sapiens, MDA-MB-231, 48 h, Table S1",4.8 ± 1.1 µM
same,TGI MDA-MB-231,[3]; [8],7.9 ± 3.8 µM
same,Dead cells,"HCT-116 cells [4]; Caspase 3/7 assay, 25 μM",~ 11%
same,caspase 3/7 activity,"HCT-116 cells [4]; 2.5 to 25 µM, result in words",no clear enhancement
same,Early Apop. cells,HCT-116 cells [5]; 15 μM,~ 23%
same,Late Apop./Dead cells,HCT-116 cells [5]; 15 μM,~ 13%
same,Live cells,HCT-116 cells [5]; 15 μM,~ 63%
same,Dead cells,HCT-116 cells [5]; 25 μM,~ 10%
same,Late Apop./Dead cells,HCT-116 cells [5]; 25 μM,~ 20%
same,Live cells,HCT-116 cells [5]; 25 μM,~ 60%
same,cells detected to be apoptotic,HCT-116 cells [5]; 25 μM,more than 30%
same,IC50,[6],7.4 ± 0.5 µM
same,GI50,[6]; Table S1,4.7 ± 0.2 µM
same,LD50 PC-3,[6]; Table S1,8.9 ± 1.9 µM
same,TGI PC-3,"[6]; in vitro TGI concentration, Table S1",6.1 ± 0.5 µM
same,IC50,"HT-29 colon cancer cells; Homo sapiens, HT-29, 48 h",8.5 ± 2.7 µM
same,GI50,"HT-29 colon cancer cells; Homo sapiens, HT-29, 48 h, Table S1",4.8 ± 1 µM
same,TGI HT-29,HT-29 colon cancer cells; [8],7.2 ± 1.8 µM
same,IC50,"[7]; Homo sapiens, HCT-116, 48 h",9 ± 3 µM
same,GI50,"[7]; Homo sapiens, HCT-116, 48 h, Table S1",4.6 ± 1.5 µM
same,TGI HCT-116,[7]; [8],10.3 ± 3.8 µM
same,"blood serum biochemistry (creatinine, AST, ALT, Alk. Phos, BUN) vs vehicle","In vivo toxicity study; female nude mice, endpoint",no significant changes
same,behavior and food/water uptake,In vivo toxicity study; mice,no changes
same,body weight during treatment,In vivo toxicity study; mice,no appreciable variations
